Test results: ChEMBL document CHEMBL3994587, “An insight on synthetic and medicinal aspects of pyrazolo[1,5-a]pyrimidine scaffold” (Eur J Med Chem, 2017)
In brackets after ≈: the same amount, converted by molar mass.

How the values were obtained:
[1] = target: Estrogen receptor beta (Homo sapiens) (UniProt Q92731); assay: Displacement of [3H]E2 from ERbeta (unknown origin) by radiometric assay relative to estradiol
[2] = target: T1, Estrogen receptor (Homo sapiens) (UniProt P03372); assay: Displacement of [3H]E2 from ERalpha (unknown origin) by radiometric assay relative to estradiol
T1 sequence (whole entry): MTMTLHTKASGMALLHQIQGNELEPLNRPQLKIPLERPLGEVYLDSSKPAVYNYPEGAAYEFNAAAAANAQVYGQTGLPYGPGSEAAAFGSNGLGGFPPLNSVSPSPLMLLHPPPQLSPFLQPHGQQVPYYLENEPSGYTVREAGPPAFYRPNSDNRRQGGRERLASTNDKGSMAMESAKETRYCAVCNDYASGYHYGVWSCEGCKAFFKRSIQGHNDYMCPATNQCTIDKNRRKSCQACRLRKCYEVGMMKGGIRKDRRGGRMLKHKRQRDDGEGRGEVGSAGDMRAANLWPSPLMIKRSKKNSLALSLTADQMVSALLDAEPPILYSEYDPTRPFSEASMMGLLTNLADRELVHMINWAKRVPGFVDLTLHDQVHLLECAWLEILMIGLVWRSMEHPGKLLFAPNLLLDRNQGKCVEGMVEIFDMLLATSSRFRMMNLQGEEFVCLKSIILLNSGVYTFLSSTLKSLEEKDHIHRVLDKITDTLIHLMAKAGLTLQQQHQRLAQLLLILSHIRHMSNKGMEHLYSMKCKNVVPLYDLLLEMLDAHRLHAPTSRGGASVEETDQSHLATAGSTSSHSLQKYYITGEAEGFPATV

[3] = target: Vascular endothelial growth factor receptor 2 (Homo sapiens, UniProt P35968); assay: biochemical
Sequence of Vascular endothelial growth factor receptor 2 (P35968 whole entry): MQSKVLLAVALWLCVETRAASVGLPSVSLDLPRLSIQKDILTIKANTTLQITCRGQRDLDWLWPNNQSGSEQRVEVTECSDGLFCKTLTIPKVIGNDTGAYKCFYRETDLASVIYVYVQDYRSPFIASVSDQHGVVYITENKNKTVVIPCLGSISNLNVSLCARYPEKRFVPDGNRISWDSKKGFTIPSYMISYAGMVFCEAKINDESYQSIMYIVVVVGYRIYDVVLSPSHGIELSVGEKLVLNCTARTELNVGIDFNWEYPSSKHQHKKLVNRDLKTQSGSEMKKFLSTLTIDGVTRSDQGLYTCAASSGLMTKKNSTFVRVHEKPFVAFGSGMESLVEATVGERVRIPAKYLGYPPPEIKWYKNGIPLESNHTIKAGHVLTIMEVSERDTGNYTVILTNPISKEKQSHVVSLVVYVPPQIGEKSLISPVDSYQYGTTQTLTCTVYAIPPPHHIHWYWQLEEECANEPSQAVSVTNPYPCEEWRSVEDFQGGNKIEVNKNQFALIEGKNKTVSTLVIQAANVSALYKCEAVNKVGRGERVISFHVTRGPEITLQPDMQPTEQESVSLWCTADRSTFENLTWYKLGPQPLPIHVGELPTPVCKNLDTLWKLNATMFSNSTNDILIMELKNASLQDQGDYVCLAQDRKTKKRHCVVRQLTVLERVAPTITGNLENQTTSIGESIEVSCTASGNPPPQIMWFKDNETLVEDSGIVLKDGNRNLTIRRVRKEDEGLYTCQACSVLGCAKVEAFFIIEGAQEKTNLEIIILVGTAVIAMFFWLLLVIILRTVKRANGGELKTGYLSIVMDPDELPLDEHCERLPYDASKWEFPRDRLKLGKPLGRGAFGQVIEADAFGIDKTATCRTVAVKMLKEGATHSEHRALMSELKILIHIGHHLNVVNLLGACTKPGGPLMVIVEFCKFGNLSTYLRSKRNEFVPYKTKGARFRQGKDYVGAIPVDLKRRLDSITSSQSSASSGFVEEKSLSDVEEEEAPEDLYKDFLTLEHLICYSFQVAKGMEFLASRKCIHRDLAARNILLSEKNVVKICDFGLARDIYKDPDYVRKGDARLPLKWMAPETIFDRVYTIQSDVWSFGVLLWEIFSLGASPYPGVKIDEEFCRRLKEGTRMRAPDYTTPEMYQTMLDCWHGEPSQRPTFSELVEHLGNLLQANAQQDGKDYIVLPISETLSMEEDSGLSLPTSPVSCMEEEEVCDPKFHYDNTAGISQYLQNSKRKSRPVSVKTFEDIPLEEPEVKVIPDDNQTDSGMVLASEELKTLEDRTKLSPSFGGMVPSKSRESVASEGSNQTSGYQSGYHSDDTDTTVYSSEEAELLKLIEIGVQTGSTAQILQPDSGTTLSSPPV
Description: Inhibition of recombinant human GST-fused KDR kinase expressed in insect Sf21 cells using poly-Glu/Tyr (4:1) peptide as substrate by ECMA

Staphylococcus aureus = assay: Antibacterial activity against Staphylococcus aureus RCMB 000108 assessed as zone of inhibition at 30 ug/ml; format: functional; settings: read-out: IZ
Pseudomonas aeruginosa = assay: Antibacterial activity against Pseudomonas aeruginosa RCMB 000103 assessed as zone of inhibition at 30 ug/ml; format: functional; settings: read-out: IZ
Geotrichum candidum = assay: Antifungal activity against Geotrichum candidum 052008 assessed as zone of inhibition at 30 ug/ml; format: functional; settings: read-out: IZ
Escherichia coli = assay: Antibacterial activity against Escherichia coli RCMB 000106 assessed as zone of inhibition at 30 ug/ml; format: functional; settings: read-out: IZ
Aspergillus fumigatus = assay: Antifungal activity against Aspergillus fumigatus RCMB 002006 assessed as zone of inhibition at 30 ug/ml; format: functional; settings: read-out: IZ
Bacillus subtilis = assay: Antibacterial activity against Bacillus subtilis RCMB 000109 assessed as zone of inhibition at 30 ug/ml; format: functional; settings: read-out: IZ
[4] = test system: Syncephalastrum racemosum; assay: Antifungal activity against Syncephalastrum racemosum 005004 assessed as zone of inhibition at 30 ug/ml; format: functional; settings: read-out: IZ
Candida albicans = assay: Antifungal activity against Candida albicans RCMB 0005003 assessed as zone of inhibition at 30 ug/ml; format: functional; settings: read-out: IZ
[5] = target: T2, Corticotropin-releasing factor receptor 1 (Homo sapiens, UniProt P34998); assay: Displacement of [125I-Tyr0]-CRF from recombinant human CRF1 receptor
T2 sequence (P34998 whole entry): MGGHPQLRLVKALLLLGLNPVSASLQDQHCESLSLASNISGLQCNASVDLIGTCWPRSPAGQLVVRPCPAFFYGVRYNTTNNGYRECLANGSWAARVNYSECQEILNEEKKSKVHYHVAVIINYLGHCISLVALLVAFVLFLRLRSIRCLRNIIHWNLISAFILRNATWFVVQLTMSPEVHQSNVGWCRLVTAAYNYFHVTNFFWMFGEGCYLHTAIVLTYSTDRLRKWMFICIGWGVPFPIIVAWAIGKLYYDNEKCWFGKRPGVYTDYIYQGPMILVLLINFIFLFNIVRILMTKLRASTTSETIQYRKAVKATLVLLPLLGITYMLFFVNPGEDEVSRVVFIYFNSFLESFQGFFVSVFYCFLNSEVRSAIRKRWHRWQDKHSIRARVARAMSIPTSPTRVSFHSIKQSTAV

Ehrlich = assay: Cytotoxicity against mouse EAC cells assessed as cell growth inhibition measured after 2 hrs by trypan blue exclusion assay; format: functional, cell-based
[6] = target: T2, Corticotropin-releasing factor receptor 1; assay: Displacement of [125I]o-CRF from recombinant human CRF1 receptor expressed in CHO cells; format: cell-based
HCT-116 = assay: Antiproliferative activity against human HCT116 cells measured after 48 hrs by SRB assay; format: functional, cell-based; settings: HCT-116, 48 h
Bos taurus [7] = species: Bos taurus; assay: Displacement of [3H]RO15-1788 from benzodiazepine receptor in bovine brain membranes at 10 uM relative to control; format: cell membranes; settings: Membrane
Bos taurus [8] = species: Bos taurus; assay: Ratio of IC50 for displacement of [3H]RO15-1788 from benzodiazepine receptor in bovine brain membranes in absence of GABA to IC50 for displacement of [3H]RO15-1788 from benzodiazepine receptor in bovine brain membranes in presence of GABA; format: cell membranes
[9] = Displacement of [3H]RO15-1788 from benzodiazepine receptor in bovine brain membranes; format: cell membranes, Bos taurus, Membrane
Trypanosoma cruzi [10] = assay: Antitrypanosomal activity against Trypanosoma cruzi by serial dilution method; format: functional
Trypanosoma cruzi [11] = assay: Antitrypanosomal activity against bloodstream forms of Trypanosoma cruzi brazilian infected in C3H/He mouse assessed as increase in mean survival time at 100 mg/kg administered twice daily for 5 days via oral gavage starting from 3 days post infection; format: functional
Sus scrofa = species: Sus scrofa; assay: Inhibition of PDE in pig blood assessed as suppression of ADP-induced platelet aggregation at 50 ug/ml by turbidimetric method relative to control
Oryctolagus cuniculus [12] = species: Oryctolagus cuniculus; assay: Potency index, ratio of theophylline IC50 to compound IC50 for inhibition of PDE in rabbit lung homogenates using [8-3H]cAMP as substrate measured 3 times between 3 to 12 mins; format: tissue-based
Oryctolagus cuniculus [13] = species: Oryctolagus cuniculus; assay: Potency index, ratio of theophylline IC50 to compound IC50 for inhibition of PDE in rabbit kidney homogenates using [8-3H]cAMP as substrate measured 3 times between 3 to 12 mins; format: tissue-based
[14] = Displacement of [3H]RO15-1788 from benzodiazepine receptor in recombinant bovine brain membranes expressed in HEK293 cells after 1 hr; format: cell-based, Bos taurus, Membrane
HepG2 = assay: Cytotoxicity against human HepG2 cells assessed as cell growth inhibition measured after 48 hrs by SRB assay; format: functional, cell-based; settings: HepG2, 48 h
MCF7 = assay: Cytotoxicity against human MCF7 cells assessed as cell growth inhibition measured after 48 hrs by SRB assay; format: functional, cell-based; settings: MCF7, 48 h
A549 = assay: Cytotoxicity against human A549 cells assessed as cell growth inhibition measured after 48 hrs by SRB assay; format: functional, cell-based; settings: A549, 48 h
Canis familiaris [15] = assay: Volume of distribution at steady state in Beagle dog at 5 mg/kg, iv administered as single dose by LC/MS/MS analysis; format: ADME, organism-based, Canis lupus familiaris; settings: in vivo
Canis familiaris [16] = assay: Half life in Beagle dog at 5 mg/kg, iv administered as single dose by LC/MS/MS analysis; format: ADME, organism-based, Canis lupus familiaris; settings: in vivo
[17] = Half life in Beagle dog at 5 mg/kg, po administered as single dose by LC/MS/MS analysis; format: ADME, organism-based, Canis lupus familiaris; settings: in vivo

Sequence of Estrogen receptor beta (Homo sapiens) (Q92731 whole entry): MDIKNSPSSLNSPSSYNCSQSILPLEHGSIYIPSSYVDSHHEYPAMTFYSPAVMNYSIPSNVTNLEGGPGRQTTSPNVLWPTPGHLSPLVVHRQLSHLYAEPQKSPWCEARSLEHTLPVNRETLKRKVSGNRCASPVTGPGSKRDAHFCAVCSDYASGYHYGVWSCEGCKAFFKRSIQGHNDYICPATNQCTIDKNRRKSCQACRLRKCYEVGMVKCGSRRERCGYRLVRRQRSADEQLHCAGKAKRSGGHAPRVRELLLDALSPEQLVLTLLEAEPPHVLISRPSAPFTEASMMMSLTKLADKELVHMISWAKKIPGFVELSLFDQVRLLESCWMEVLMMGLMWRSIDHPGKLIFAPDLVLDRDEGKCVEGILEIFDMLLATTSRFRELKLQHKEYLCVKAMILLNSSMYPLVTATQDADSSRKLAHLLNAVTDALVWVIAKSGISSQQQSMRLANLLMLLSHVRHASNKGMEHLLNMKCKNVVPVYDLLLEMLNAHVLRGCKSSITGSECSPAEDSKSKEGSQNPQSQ

Compound `Oc1ccc(-c2c(-c3ccccc3)nn3cccnc23)cc1` has a relative binding affinity (RBA) [1] of 0.023 and a relative binding affinity (RBA) [2] of 0.007.
Work on `c1ccc(-c2cnn3cc(-c4ccc(OCCN5CCOCC5)cc4)cnc23)cc1` yielded an IC50 [3] of 32 nM.
Compound `Nc1nn2c(-c3cccs3)cc(-c3cccs3)nc2c1/N=N/c1ccccc1` has a zone of inhibition at 30 µg/mL (Staphylococcus aureus) of 15.3 mm, a zone of inhibition at 30 µg/mL (Pseudomonas aeruginosa) of 9.3 mm and a zone of inhibition at 30 µg/mL (Geotrichum candidum) of 11.3 mm. It also gave a zone of inhibition at 30 µg/mL (Escherichia coli) of 14.9 mm, a zone of inhibition at 30 µg/mL (Aspergillus fumigatus) of 15.2 mm and a zone of inhibition at 30 µg/mL (Bacillus subtilis) of 17.9 mm. For the same compound, the zone of inhibition at 30 µg/mL [4] was 8.2 mm and the zone of inhibition at 30 µg/mL (Candida albicans) was 10 mm.
`CCC(CC)Nc1cc(C)nc2c(-c3ccc(Cl)cc3C)c(C)nn12` showed a Ki [5] of 1.7 nM.
`Cc1cc(C)n2nc(Nc3ccccc3)c(C(=O)Nc3ccccc3)c2n1` showed an IC50 (Ehrlich) of 10 µg/mL (≈ 28 µM).
For `CCCCc1nn2c(N(CC)CCCC)cc(C)nc2c1-c1ccc(Cl)cc1Cl`, the Ki [6] was 5 nM.
`CSc1nn2c(NC3CCCCC3)cc(-c3ccccc3)nc2c1C#N` gave an IC50 (HCT-116) of 2 nM.
Compound `O=c1c(-c2ccsc2)c[nH]c2c(-c3ccsc3)cnn12` has an inhibition (Bos taurus [7]) of 100%, a Ratio IC50 (Bos taurus [8]) of 1.3 and a Ki [9] of 16.3 nM.
`Cc1cc(N/N=C/c2ccc([N+](=O)[O-])o2)n2nccc2n1` showed an MLC (Trypanosoma cruzi [10]) of 10 µg/mL (≈ 34.9 µM), an MIC (Trypanosoma cruzi [10]; Trypanosoma cruzi) of 10 µg/mL (≈ 34.9 µM) and an Activity (Trypanosoma cruzi [11]) of 63.4%.
For `CCOC(=O)c1cnc2c(Br)cnn2c1O`, the inhibition (Sus scrofa) was 34%, the Ratio IC50 (Oryctolagus cuniculus [12]) was 0.5 and the Ratio IC50 (Oryctolagus cuniculus [13]) was 1.
`CN1C(=O)CN=C(c2ccccc2)c2cc(Cl)ccc21` [DIAZEPAM] gave a Ki [14] of 10 nM.
In the case of `CCC(CC)Nc1cc(C)nc2c(-c3ccc(C)cc3Cl)c(C)nn12`, the Ki [5] is reported as 1.5 nM.
Work on `COc1ccc(Nc2nn3c(O)cc(C)nc3c2C(=O)Nc2ccc(Cl)cc2)cc1` yielded an IC50 (HepG2) of 6.1 µg/mL (≈ 14.4 µM), an IC50 (MCF7) of 4.2 µg/mL (≈ 9.91 µM) and an IC50 (A549) of 5.45 µg/mL (≈ 12.9 µM).
With `CCC(CC)Nc1cc(C)nc2c(-c3ccc(OC)cc3C)c(C)nn12` the Vdss (Canis familiaris [15]) was 23 L/kg, the t1/2 (Canis familiaris [16]) was 46.4 h and the half-life [17] was 45.1 h.
